The results in this text go back to ChEMBL document CHEMBL5537135, “Novel antimicrobial peptides modified with fluorinated sulfono-γ-AA having high stability and targeting multidrug-resistant bacteria infections” (Eur J Med Chem, 2024).

In brackets after ≈: the same amount, converted by molar mass. Activity calls are given as the source filed them. The rule behind the calls is not given here.

The subject of test [1] is Staphylococcus epidermidis. The experiment in a line: Antimicrobial activity against Staphylococcus epidermidis ATCC 12228 assessed as inhibition of visible bacterial growth incubated for 18 hrs by broth-dilution method. Type of test: functional.
Test [2] concerns Pseudomonas aeruginosa. The experiment in a line: Antimicrobial activity against multidrug-resistant Pseudomonas aeruginosa 061 assessed as inhibition of visible bacterial growth incubated for 18 hrs by broth-dilution method. Type of test: functional.
Test [3] deals with Pseudomonas aeruginosa. Kind of test: Antimicrobial activity against multidrug-resistant Pseudomonas aeruginosa 085 assessed as inhibition of visible bacterial growth incubated for 18 hrs by broth-dilution method. Type of test: functional.
Test [4] has as its system Pseudomonas aeruginosa. Kind of test: Antimicrobial activity against multidrug-resistant Pseudomonas aeruginosa 157 assessed as inhibition of visible bacterial growth incubated for 18 hrs by broth-dilution method. Type of test: functional.
Test [5] has as its system Pseudomonas aeruginosa. The experiment in a line: Antibacterial activity against antibiotics-resistant Pseudomonas aeruginosa […] assessed as reduction in microbial growth. Type of test: functional.
In test [6] the test system is Staphylococcus aureus. The experiment in a line: Antimicrobial activity against methicillin-resistant Staphylococcus aureus ATCC 33591 assessed as inhibition of visible bacterial growth incubated for 18 hrs by broth-dilution method. Type of test: functional.
The subject of test [7] is Pseudomonas aeruginosa. Kind of test: Antimicrobial activity against multidrug-resistant Pseudomonas aeruginosa 516 assessed as inhibition of visible bacterial growth incubated for 18 hrs by broth-dilution method. Format: functional.
In test [8] the test system is Pseudomonas aeruginosa. The experiment in a line: Antimicrobial activity against Pseudomonas aeruginosa ATCC 27853 assessed as inhibition of visible bacterial growth incubated for 18 hrs by broth-dilution method. Format: functional.
The test system of test [9] is Pseudomonas aeruginosa. The experiment in a line: Antimicrobial activity against multidrug-resistant Pseudomonas aeruginosa 073 assessed as inhibition of visible bacterial growth incubated for 18 hrs by broth-dilution method. Format: functional.
In test [10] the test system is Pseudomonas aeruginosa. Kind of test: Antimicrobial activity against multidrug-resistant Pseudomonas aeruginosa 124 assessed as inhibition of visible bacterial growth incubated for 18 hrs by broth-dilution method. Type of test: functional.
Test [11] relates to Staphylococcus aureus. Kind of test: Antibacterial activity against antibiotics-resistant Staphylococcus aureus ATCC 33591 assessed as reduction in microbial growth. Format: functional.
The test system of test [12] is Pseudomonas aeruginosa. The experiment in a line: Antimicrobial activity against multidrug-resistant Pseudomonas aeruginosa 119 assessed as inhibition of visible bacterial growth incubated for 18 hrs by broth-dilution method. Type of test: functional.
For the next test, the system named is Escherichia coli. Kind of test: Antimicrobial activity against Escherichia coli ATCC 25922 assessed as inhibition of visible bacterial growth incubated for 18 hrs by broth-dilution method. Format: functional.
For a further test, the system named is Bacillus subtilis. The experiment in a line: Antimicrobial activity against Bacillus subtilis ATCC 23857 assessed as inhibition of visible bacterial growth incubated for 18 hrs by broth-dilution method. Type of test: functional.
Another test has as its system Acinetobacter baumannii. The experiment in a line: Antimicrobial activity against Acinetobacter baumannii ATCC 19606 assessed as inhibition of visible bacterial growth incubated for 18 hrs by broth-dilution method. Type of test: functional.
Test [13] has as its system Pseudomonas aeruginosa. Kind of test: Antimicrobial activity against multidrug-resistant Pseudomonas aeruginosa 156 assessed as inhibition of visible bacterial growth incubated for 18 hrs by broth-dilution method. Type of test: functional.
Test [14] concerns Pseudomonas aeruginosa. Kind of test: Antimicrobial activity against multidrug-resistant Pseudomonas aeruginosa 125 assessed as inhibition of visible bacterial growth incubated for 18 hrs by broth-dilution method. Format: functional.
Test [15] relates to Pseudomonas aeruginosa. The experiment in a line: Antibacterial activity against Pseudomonas aeruginosa ATCC 27853 infected in C57BL/6 mouse pneumonia model assessed as log reduction in bacterial load in lung at 5 mg/kg, ip administered for 1 to 48 hrs and measured after 3 days. Type of test: functional. Particulars: time 1-120 hrs.
The subject of test [16] is Staphylococcus aureus. Kind of test: Antimicrobial activity against Staphylococcus aureus ATCC 25923 assessed as inhibition of visible bacterial growth incubated for 18 hrs by broth-dilution method. Format: functional.
In the next test the test system is Salmonella typhimurium. The experiment in a line: Antimicrobial activity against Salmonella typhimurium ATCC 14028 assessed as inhibition of visible bacterial growth incubated for 18 hrs by broth-dilution method. Format: functional, Salmonella enterica subsp. enterica serovar Typhimurium. Particulars: Salmonella enterica.
In test [17] the test system is Pseudomonas aeruginosa. Kind of test: Antimicrobial activity against multidrug-resistant Pseudomonas aeruginosa 050 assessed as inhibition of visible bacterial growth incubated for 18 hrs by broth-dilution method. Format: functional.
Test [18] relates to Staphylococcus aureus. The experiment in a line: Antimicrobial activity against methicillin-resistant Staphylococcus aureus 10 assessed as inhibition of visible bacterial growth incubated for 18 hrs by broth-dilution method. Type of test: functional.
Test [19] deals with Staphylococcus aureus. The experiment in a line: Antimicrobial activity against methicillin-resistant Staphylococcus aureus 5 assessed as inhibition of visible bacterial growth incubated for 18 hrs by broth-dilution method. Type of test: functional.
In test [20] the test system is Staphylococcus aureus. The experiment in a line: Antimicrobial activity against methicillin-resistant Staphylococcus aureus 6 assessed as inhibition of visible bacterial growth incubated for 18 hrs by broth-dilution method. Format: functional.
Test [21] has as its system Staphylococcus aureus. Kind of test: Antimicrobial activity against methicillin-resistant Staphylococcus aureus 3 assessed as inhibition of visible bacterial growth incubated for 18 hrs by broth-dilution method. Format: functional.
Test [22] relates to Staphylococcus aureus. Kind of test: Antimicrobial activity against methicillin-resistant Staphylococcus aureus 2 assessed as inhibition of visible bacterial growth incubated for 18 hrs by broth-dilution method. Type of test: functional.
Test [23] relates to Staphylococcus aureus. Kind of test: Antimicrobial activity against methicillin-resistant Staphylococcus aureus 7 assessed as inhibition of visible bacterial growth incubated for 18 hrs by broth-dilution method. Format: functional.
The subject of test [24] is Staphylococcus aureus. Kind of test: Antimicrobial activity against methicillin-resistant Staphylococcus aureus 1 assessed as inhibition of visible bacterial growth incubated for 18 hrs by broth-dilution method. Type of test: functional.
The subject of test [25] is Staphylococcus aureus. The experiment in a line: Antimicrobial activity against methicillin-resistant Staphylococcus aureus 9 assessed as inhibition of visible bacterial growth incubated for 18 hrs by broth-dilution method. Type of test: functional.
For test [26], the system named is Staphylococcus aureus. Kind of test: Antimicrobial activity against methicillin-resistant Staphylococcus aureus 4 assessed as inhibition of visible bacterial growth incubated for 18 hrs by broth-dilution method. Type of test: functional.
Test [27] concerns Staphylococcus aureus. The experiment in a line: Antimicrobial activity against methicillin-resistant Staphylococcus aureus 8 assessed as inhibition of visible bacterial growth incubated for 18 hrs by broth-dilution method. Format: functional.
Test [28] deals with Staphylococcus aureus. Kind of test: Antibacterial activity against methicillin-resistant Staphylococcus aureus ATCC 33591 infected in full-thickness wound BALB/c mouse model assessed as reduction in inflammatory infiltration at 1 mg/kg, ip administered for 1 to 48 hrs and measured after 3 days. Particulars: time 1-120 hrs. Format: functional, organism-based.

As for `CC(C)(O/N=C(\C(=O)N[C@@H]1C(=O)N2C(C(=O)[O-])=C(C[n+]3ccccc3)CS[C@H]12)c1csc(N)n1)C(=O)O` [CEFTAZIDIME], the MIC in [1] is 256 µg/mL (≈ 468 µM); in the test on Pseudomonas aeruginosa [2], 1 µg/mL (≈ 1.83 µM); in the test on Pseudomonas aeruginosa [3], 1 µg/mL (≈ 1.83 µM); with Pseudomonas aeruginosa [4] it was 1 µg/mL (≈ 1.83 µM); in the test on Pseudomonas aeruginosa [5] it was 32 µg/mL; in the test with Staphylococcus aureus [6] it was 258 µg/mL (≈ 472 µM). In addition, the MIC was 1 µg/mL (≈ 1.83 µM) with Pseudomonas aeruginosa [7]; 1 µg/mL (≈ 1.83 µM) with Pseudomonas aeruginosa [8]; 1 µg/mL (≈ 1.83 µM) in the test with Pseudomonas aeruginosa [9]; 256 µg/mL (≈ 468 µM) in the test with Pseudomonas aeruginosa [10]; 32 µg/mL in the test with Staphylococcus aureus [11]; 1 µg/mL (≈ 1.83 µM) in the test on Pseudomonas aeruginosa [12]. Moreover, the MIC amounted to 1 µg/mL (≈ 1.83 µM) in the test with Escherichia coli; 8 µg/mL (≈ 14.6 µM) in the test with Bacillus subtilis; 4 µg/mL (≈ 7.32 µM) in the test with Acinetobacter baumannii; 256 µg/mL (≈ 468 µM) in the test with Pseudomonas aeruginosa [13]; 2 µg/mL (≈ 3.66 µM) in the test on Pseudomonas aeruginosa [14]; 4 µg/mL (≈ 7.32 µM) in the test with Staphylococcus aureus [16]. Also, the MIC with Salmonella typhimurium worked out at 256 µg/mL (≈ 468 µM); in the test on Pseudomonas aeruginosa [17], 1 µg/mL (≈ 1.83 µM). Further, the “log(activity)” value with Pseudomonas aeruginosa [15] is listed as 4.75.

On to `C[C@@H](O)[C@H]1C(=O)N2C(C(=O)O)=C(SCCNC=N)C[C@H]12` [IMIPENEM ANHYDROUS], for which the MIC in [1] turned out to be 1 µg/mL (≈ 3.34 µM); with Pseudomonas aeruginosa [2], 2 µg/mL (≈ 6.68 µM); in the test with Pseudomonas aeruginosa [3] it was 8 µg/mL (≈ 26.7 µM); in the test on Pseudomonas aeruginosa [4], 2 µg/mL (≈ 6.68 µM); in the test on Staphylococcus aureus [18] it was 1 µg/mL (≈ 3.34 µM); in the test with Staphylococcus aureus [19], 1 µg/mL (≈ 3.34 µM). The minimal inhibitory concentration (MIC) in the test with Staphylococcus aureus [20] was found to be 1 µg/mL (≈ 3.34 µM); in the test with Pseudomonas aeruginosa [5], 32 µg/mL; in the test on Staphylococcus aureus [6] it was 32 µg/mL (≈ 107 µM); with Staphylococcus aureus [21] it was 1 µg/mL (≈ 3.34 µM); in the test on Pseudomonas aeruginosa [7] it was 4 µg/mL (≈ 13.4 µM); in the test on Pseudomonas aeruginosa [8], 2 µg/mL (≈ 6.68 µM). Besides, the MIC in the test on Pseudomonas aeruginosa [9] worked out at 4 µg/mL (≈ 13.4 µM); in the test with Pseudomonas aeruginosa [10], 4 µg/mL (≈ 13.4 µM); in the test on Staphylococcus aureus [11] it was 32 µg/mL; with Pseudomonas aeruginosa [12] it was 2 µg/mL (≈ 6.68 µM); with Escherichia coli it was 1 µg/mL (≈ 3.34 µM); in the test on Bacillus subtilis it was 1 µg/mL (≈ 3.34 µM). In addition, the MIC is 1 µg/mL (≈ 3.34 µM) in the test on Acinetobacter baumannii; 4 µg/mL (≈ 13.4 µM) with Pseudomonas aeruginosa [13]; 8 µg/mL (≈ 26.7 µM) with Pseudomonas aeruginosa [14]; 1 µg/mL (≈ 3.34 µM) in the test on Staphylococcus aureus [22]; 1 µg/mL (≈ 3.34 µM) with Staphylococcus aureus [23]; 1 µg/mL (≈ 3.34 µM) in the test with Staphylococcus aureus [16]. The MIC worked out at 1 µg/mL (≈ 3.34 µM) in the test with Staphylococcus aureus [24]; 1 µg/mL (≈ 3.34 µM) with Salmonella typhimurium; 1 µg/mL (≈ 3.34 µM) in the test with Staphylococcus aureus [25]; 1 µg/mL (≈ 3.34 µM) in the test with Staphylococcus aureus [26]; 1 µg/mL (≈ 3.34 µM) in the test with Staphylococcus aureus [27]; 8 µg/mL (≈ 26.7 µM) in the test on Pseudomonas aeruginosa [17].

Regarding `CN[C@H](CC(C)C)C(=O)N[C@H]1C(=O)N[C@@H](CC(N)=O)C(=O)N[C@H]2C(=O)N[C@H]3C(=O)N[C@H](C(=O)N[C@H](C(=O)O)c4cc(O)cc(O)c4-c4cc3ccc4O)[C@H](O)c3ccc(c(Cl)c3)Oc3cc2cc(c3O[C@@H]2O[C@H](CO)[C@@H](O)[C@H](O)[C@H]2O[C@H]2C[C@](C)(N)[C@H](O)[C@H](C)O2)Oc2ccc(cc2Cl)[C@H]1O` [VANCOMYCIN], the MIC with Pseudomonas aeruginosa [8] is 256 µg/mL (≈ 177 µM); with Escherichia coli, 256 µg/mL (≈ 177 µM); in the test with Bacillus subtilis it was 1 µg/mL (≈ 0.69 µM); in the test on Acinetobacter baumannii, 32 µg/mL (≈ 22.1 µM); in the test with Salmonella typhimurium, 128 µg/mL (≈ 88.3 µM). For the same compound, the outcome in the test on Staphylococcus aureus [28] was Active.
